# Reference: patent US20200405868A1, “GEL-FORMING POLYPEPTIDES” (priority 2018, published 2020)
# Where no end group is shown, it is not given here.
# Experiment: Compound gel-forming ability in water (visual inspection, tube tapping assay, tilted tube assay);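 note: peptides mixed with de-ionized water at about 22-25 °C, judged after 20 min by eye plus tube tapping (10 taps, moves counted) and 90° tilt mobility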
# Type: physicochemical
# Details: for gel formation in aqueous solution, 6% / propensity to form gels, wild-type counterparts, 6% / propensity to form gels, chimeric or mutated polypeptides, 6%: 6% w/w; for gel formation in aqueous solution, 11% / propensity to form gels, wild-type counterparts, 11% / propensity to form gels, chimeric or mutated polypeptides, 11%: 11% w/w; for gel formation at 3% w/w: 3% w/w in water; for gel formation at 6% w/w: 6% w/w in water; for gel formation at 11% w/w: 11% w/w in water; for Physical property at 11% w/w: 11% w/w in aqueous solution, room temperature; for gel formation in aqueous solution, 20% / propensity to form gels, wild-type counterparts, 20% / propensity to form gels, chimeric or mutated polypeptides, 20%: 20% w/w; for gel formation at 20% w/w: 20% w/w in water; for gel formation at the selected concentration: selected concentration (i.e., at 30%, 20%, 11%, or 6% w/w)
Substance,"gel formation in aqueous solution, 11% (Table 3)",gel formation at 11% w/w,Physical property at 11% w/w (Table 1),"gel formation in aqueous solution, 20% (Table 3)","propensity to form gels, chimeric or mutated polypeptides, 11% (Table 5)",also measured
FKFEFKFE-miniPEG-RPKPQQFFGLM-NH2 [SEQ ID NO:284],AS/IS (AS/IS for aqueous solution or insoluble),–,–,–,–,"gel formation in aqueous solution, 6% (Table 3): AS/IS (AS/IS for aqueous solution or insoluble)"
"FTLSLDVPTNIMNLLFNIAKAKNLRAQAAANAHLMAQI-NH2 [SEQ ID NO:10, reference compound]",SS (SS for semisolid gel),semisolid gel,SS (SS for semisolid gel),SS (SS for semisolid gel),–,"gel formation at 3% w/w: liquid gel; gel formation at 6% w/w: semisolid gel; propensity to form gels, wild-type counterparts, 6% (Table 5): SS (An ability to form semisolid gel is represented by an SS); propensity to form gels, wild-type counterparts, 11% (Table 5): SS (An ability to form semisolid gel is represented by an SS)"
"GRKKRRQRRRPQ [SEQ ID NO:36, reference compound]",AS/IS (AS/IS for aqueous solution or insoluble),cannot form gel,AS/IS,AS/IS (AS/IS for aqueous solution or insoluble),–,"gel formation at 20% w/w: cannot form gel; propensity to form gels, wild-type counterparts, 11% (Table 5): AS/IS; propensity to form gels, wild-type counterparts, 20% (Table 5): AS/IS; gel formation at the selected concentration: only form aqueous solution or are insoluble"
HAEGTFTSDVSSYLEGQAAK(YSHPSS-Pal)EFIAWLVRGRG [SEQ ID NO:269],SS (SS for semisolid gel),–,–,SS (SS for semisolid gel),SS (An ability to form semisolid gel is represented by an SS),"propensity to form gels, chimeric or mutated polypeptides, 20% (Table 5): SS (An ability to form semisolid gel is represented by an SS)"
"HAEGTFTSDVSSYLEGQAAKEFIAWLVKGR-NH2 [SEQ ID NO:14, reference compound]",–,liquid gel,–,–,–,"gel formation in aqueous solution, 6% (Table 3): AS/IS (AS/IS for aqueous solution or insoluble); propensity to form gels, wild-type counterparts, 6% (Table 5): AS/IS"
HAEGTFTSDVSSYLEGQAAREFIAWLVK(YSHPSS-Pal)GRG [SEQ ID NO:270],SS (SS for semisolid gel),–,–,SS (SS for semisolid gel),SS (An ability to form semisolid gel is represented by an SS),"propensity to form gels, chimeric or mutated polypeptides, 20% (Table 5): SS (An ability to form semisolid gel is represented by an SS)"
"HGDGSFSDEMNTILDNLAARDFINWLIQTKITD-OH [SEQ ID NO:12, reference compound]",–,liquid gel,–,–,–,"gel formation in aqueous solution, 6% (Table 3): AS/IS (AS/IS for aqueous solution or insoluble); propensity to form gels, wild-type counterparts, 6% (Table 5): AS/IS"
HSDAVFTDNYTRLRKQ-Nle-AVKKYLNSILN-(Pal-K)-SY-NH2 [SEQ ID NO:266],SS (SS for semisolid gel),semisolid gel,–,–,SS (An ability to form semisolid gel is represented by an SS),–
"HSDAVFTDNYTRLRKQMAVKKYLNSILN [SEQ ID NO:67, reference compound]",AS/IS (AS/IS for aqueous solution or insoluble),does not form gel,–,AS/IS (AS/IS for aqueous solution or insoluble),–,"gel formation at 20% w/w: does not form gel; propensity to form gels, wild-type counterparts, 11% (Table 5): AS/IS; propensity to form gels, wild-type counterparts, 20% (Table 5): AS/IS"
"IEGPTLRQWLAARA [SEQ ID NO:9, reference compound]",–,–,SS (SS for semisolid gel),–,–,–
"IVLSLDVPIGLLQILLEQARARAAREQATTNARILARVGHC-NH2 [SEQ ID NO:31, reference compound]",AS/IS (AS/IS for aqueous solution or insoluble),does not form gel,AS/IS,AS/IS (AS/IS for aqueous solution or insoluble),–,"gel formation at 20% w/w: does not form gel; propensity to form gels, wild-type counterparts, 11% (Table 5): AS/IS; propensity to form gels, wild-type counterparts, 20% (Table 5): AS/IS; gel formation at the selected concentration: only form aqueous solution or are insoluble"
"KRPPGFS-(Dβal)-Ile-NH2 [SEQ ID NO:65, reference compound]",AS/IS (AS/IS for aqueous solution or insoluble),does not form a gel,–,–,–,"gel formation at 6% w/w: does not form a gel; gel formation in aqueous solution, 6% (Table 3): AS/IS (AS/IS for aqueous solution or insoluble); propensity to form gels, wild-type counterparts, 6% (Table 5): AS/IS; propensity to form gels, wild-type counterparts, 11% (Table 5): AS/IS"
"KTTKS-NH2 [SEQ ID NO:43, reference compound]",–,–,AS/IS,–,–,–
"PFRSVQ-NH2 [SEQ ID NO:37, reference compound]",AS/IS (AS/IS for aqueous solution or insoluble),does not form gel,AS/IS,–,–,"propensity to form gels, wild-type counterparts, 11% (Table 5): AS/IS"
"PGTCEICAYAACTGC [SEQ ID NO:40, reference compound]",–,–,AS/IS,–,–,–
Pal-HSDAAVDTSSEITTKDLKEKKEVVEEAEN-NH2 [SEQ ID NO:267],SS (SS for semisolid gel),semisolid gel,–,–,SS (An ability to form semisolid gel is represented by an SS),"gel formation in aqueous solution, 6% (Table 3): SS (SS for semisolid gel); propensity to form gels, chimeric or mutated polypeptides, 6% (Table 5): SS (An ability to form semisolid gel is represented by an SS)"
Pal-HSY-(D-Ala)-GF(D-Leu)-NH2 [SEQ ID NO:213],–,–,–,–,–,"gel formation at 3% w/w: semisolid gels; gel formation in aqueous solution, 3% (Table 3, 3% w/w): SS (SS for semisolid gel)"
Pal-HSY-(D-Met)-FHLMD-NH2 [SEQ ID NO:211],SS (SS for semisolid gel),semisolid gel,–,–,–,gel formation at 6% w/w: semisolid or liquid gel
Pal-HSY-(D-Phe)-QWAVGHL-(4-Cl)Phe-NH2 [SEQ ID NO:255],SS (SS for semisolid gel),–,–,–,SS (An ability to form semisolid gel is represented by an SS),"propensity to form gels, chimeric or mutated polypeptides, 3% (Table 5, 3% w/w): AS/IS"
Pal-HSY-NH2 [SEQ ID NO:120],–,–,–,–,–,Physical property at 11% w/w (Table 2): SS (SS for semisolid gel)
Pal-HSY-Nle-cyclo[Asp-His-D-Phe-Arg-Trp-Lys]-NH2 [SEQ ID NO:257],SS (SS for semisolid gel),–,–,SS (SS for semisolid gel),SS (An ability to form semisolid gel is represented by an SS),"propensity to form gels, chimeric or mutated polypeptides, 20% (Table 5): SS (An ability to form semisolid gel is represented by an SS)"
Pal-HSYAAVDTSSEITTKDLKEKKEVVEEAEN-NH2 [SEQ ID NO:240],SS (SS for semisolid gel),semisolid gel,–,–,SS (An ability to form semisolid gel is represented by an SS),"gel formation in aqueous solution, 6% (Table 3): AS/IS (AS/IS for aqueous solution or insoluble); propensity to form gels, chimeric or mutated polypeptides, 6% (Table 5): AS/IS"
